# According to patent US20240050434A1, “HORMAD1 THERAPEUTICS” (Royal Cancer Hospital, priority 2020, published 2024):
# Entries after “also recorded” stand apart in the source; their conditions may differ.
# Columns and labels:
# [1] = system: RPE1 cells expressing a doxycycline-inducible HORMAD1 construct; test: Cell viability by cell titre glo in RPE1 cells with doxycycline-inducible HORMAD1; format: cell-based
# Procedure: RPE1 cells expressing a doxycycline-inducible HORMAD1 construct were treated with doxycycline or vehicle. […] Six days post HORMAD1 induction and 5 days post drug, cell viability was estimated using cell titre glo reagent. Surviving fractions were calculated (normalised to vehicle treated cells).
# RPE1 and SUM159 cells expressing a doxycycline-inducible HORMAD1 construct were treated with doxycycline or vehicle. […] Surviving fractions were calculated (normalised to vehicle treated cells). (FIGS. 7a, b and 14c and d). Data from 3 replicas was analysed using 2-way ANOVA. 5 days post drugging, cell viability was estimated using cell titre glo reagent. Surviving fractions were calculated (normalised to vehicle treated cells). Data from 4 replicas was analysed using 2-way ANOVA.
# RPE1 cells expressing a doxycycline-inducible HORMAD1 construct were treated with doxycycline or vehicle. […] 5 days post drugging, cell viability was estimated using cell titre glo reagent. Surviving fractions were calculated (normalised to vehicle treated cells).
# RPE1 cells expressing a doxycycline-inducible HORMAD1 construct were treated with doxycycline or vehicle in order to induce HORMAD1 expression. […] Using cell titre glo as a measure of cell viability, surviving fractions were calculated (normalised to eribulin alone).
# RPE1 cells expressing a doxycycline-inducible HORMAD1 construct were treated with doxycycline or vehicle. […] Using cell titre glo as a measure of cell viability, surviving fractions were calculated (normalised to olaparib alone).
# [2] = system: TP53 null MCF10A cells expressing a doxycycline-inducible HORMAD1 construct (3D spheroids); test: 3D spheroid viability (cell titre glo) in TP53 null MCF10A cells with inducible HORMAD1; format: cell-based; conditions: increasing doses, 14 days post drugging
# Procedure: TP53 null MCF10A cells expressing a doxycycline-inducible HORMAD1 construct were treated with doxycycline or vehicle. Cells were grown in 3D spheroid cultures. Following doxycycline induction, increasing doses of BUB1 inhibitor BAY-1816032 was added to the cells. 14 days post drugging, cell viability was estimated using cell titre glo reagent. Surviving fractions were calculated (normalised to vehicle treated cells). Data is from 3 replicas, analysed using 2-way ANOVA.
# [3] = system: HORMAD1-positive and HORMAD1-negative triple negative breast cancer patient-derived organoids; test: Patient-derived TNBC organoids, viability by cell titre glo; format: cell-based, human; conditions: 14 days
# Description: RPE1 cells were reverse transfected with BUB1 or control siRNA particles for 3 days. Cell lysates were collected, and analysed by western blotting using anti-BUB1 and anti-β-ACTIN antibodies. B. Graph indicating reduced cellular survival in HORMAD1 expressing RPE1 cells depleted of BUB1 using siRNA. RPE1 cells expressing a doxycycline-inducible HORMAD1 expression construct were exposed to doxycycline or vehicle, and were reverse transfected with BUB1 or control siRNA particles. 5 days post transfection, cellular viability was estimated using cell titer glo reagent and surviving fractions were calculated relative to DMSO treated cells. […] Statistical significance estimated using a one-way ANOVA with Sidak's correction. C. […] 7-10 days post doxycycline induction, cells were fixed, stained with SRB, and cellular viability was estimated using SRB absorbance readings. […] Cells were fixed, stained with SRB, and cellular viability was estimated using SRB absorbance readings. […] Cells were imaged every 4 hours, and confluence was continually measured using incucyte software. […] Cellular viability was estimated using cell titer glo reagent and surviving fractions were calculated relative to DMSO treated cells. […]
# A further experiment was conducted to test the efficacy of BUB1 inhibitors to selectively kill HORMAD1-positive human tumours. […] Surviving fractions were calculated (normalised to vehicle treated cells). […]
# [4] = system: HORMAD1 positive organoid KCL625; test: HORMAD1 positive organoid KCL625 viability by cell titer glo; format: cell-based; conditions: indicated doses, 10 days
# Procedure: Organoids were treated with the indicated doses of drug for 10 days and cell viability assessed by cell titer glo. Data is presented as mean and standard deviation of triplicate wells;
Compound,"growth inhibition (surviving fraction) of HORMAD1 expressing versus HORMAD1-negative RPE1 cells, with eribulin ([1]; increasing doses alongside 0.4 nm eribulin, normalised to eribulin alone)","growth inhibition (surviving fraction) of HORMAD1 expressing versus HORMAD1-negative RPE1 cells, with olaparib ([1]; increasing doses alongside 0.47 μm olaparib, normalised to olaparib alone)","growth inhibition (surviving fraction) of HORMAD1 expressing versus HORMAD1-negative RPE1 cells ([1]; increasing doses, 5 days post drug, cell titre glo, normalised to vehicle)",growth inhibition of HORMAD1 expressing versus HORMAD1-negative spheroids [2],growth inhibition of HORMAD1-expressing versus HORMAD1-negative patient-derived organoids (BUB1 inhibitor) ([3]; 3 HORMAD1-positive and 5 HORMAD1-negative models),"growth inhibition of HORMAD1 expressing versus HORMAD1-negative patient-derived organoids (AURORA B inhibitor) ([3]; BTBC673PO versus WHIM21XO, BXO88XO, BXO78XO)",sensitivity (surviving fraction versus DMSO) of organoid KCL625 [4]
COc1cnccc1Nc1nc(-c2nn(Cc3c(F)cc(OCCO)cc3F)c3ccccc23)ncc1OC [BAY-1816032],more effectively inhibited,more effectively inhibited,more effectively inhibited,more effectively inhibited,more effectively inhibited; also recorded: increased BUB1 inhibitor sensitivity,–,–
CCN(CCO)CCCOc1ccc2c(Nc3cc(CC(=O)Nc4cccc(F)c4)[nH]n3)ncnc2c1 [AZD1152-HQPA],–,–,–,–,–,growth inhibition was more effective,highly sensitive; also recorded: high sensitivity
